The test is described as follows: Inhibition of MCP1-mediated human THP cell migration.

What is called IC50 is the concentration that inhibits the measured activity by half. Read a low IC50 as higher potency. The compound `O=c1[nH]ccc2c(S(=O)(=O)N3CCCNCC3)cccc12` returned an IC50 of 6.92 µM. This lies in the single-digit micromolar range.
Compound `C[C@@H](N)[C@H]1CC[C@H](C(=O)Nc2ccncc2)CC1` [4-[(1R)-1-aminoethyl]-N-(pyridin-4-yl)cyclohexane-1-carboxamide] returned an IC50 of 2.63 µM.
`Nc1nccc2cc(CNCCc3ccccc3)ccc12` yielded a concentration for half-maximal inhibition (IC50) of more than 31.6 µM.
For `O=S(=O)(c1cccc2cnccc12)N1CCCNCC1` [AT877], half-maximal inhibition (IC50) required 6.92 µM.

The values are drawn from BindingDB's records for doi:10.1016/j.bmcl.2010.11.060 (Msd, 2010).
